Source: patent USRE32519E, “Sulfur-containing isoquinoline derivatives, process for the preparation thereof and pharmaceutical compositions containing them” (Chinoin Gyogyszer es Vegyeszeti Termekek Gyara, priority 1979, dated 1987)
Counter-ions that a name gives are not always drawn. Like-named read-outs stand apart in the source and are kept apart here.

How the values were obtained:
cyclic oxygenase = biological target: T1, cyclic oxygenase (Ovis aries, UniProt P05979); test: effect on biosynthesis of prostaglandins: activity of cyclic oxygenase, oxygen consumption with arachidonic acid substrate (Clark electrode); format: biochemical, sheep; settings: for AC50: concentration for 50% increase in oxygen consumption; for EC (100% increase): concentration for 100% increase in oxygen consumption, read-out: AC100%
T1 construct: As an enzyme source a homogenizate of sheep spermatocele; from tissue; host or cells: homogenate of sheep 'spermatocele' (read as seminal vesicle)
T1 sequence (P05979 25-600): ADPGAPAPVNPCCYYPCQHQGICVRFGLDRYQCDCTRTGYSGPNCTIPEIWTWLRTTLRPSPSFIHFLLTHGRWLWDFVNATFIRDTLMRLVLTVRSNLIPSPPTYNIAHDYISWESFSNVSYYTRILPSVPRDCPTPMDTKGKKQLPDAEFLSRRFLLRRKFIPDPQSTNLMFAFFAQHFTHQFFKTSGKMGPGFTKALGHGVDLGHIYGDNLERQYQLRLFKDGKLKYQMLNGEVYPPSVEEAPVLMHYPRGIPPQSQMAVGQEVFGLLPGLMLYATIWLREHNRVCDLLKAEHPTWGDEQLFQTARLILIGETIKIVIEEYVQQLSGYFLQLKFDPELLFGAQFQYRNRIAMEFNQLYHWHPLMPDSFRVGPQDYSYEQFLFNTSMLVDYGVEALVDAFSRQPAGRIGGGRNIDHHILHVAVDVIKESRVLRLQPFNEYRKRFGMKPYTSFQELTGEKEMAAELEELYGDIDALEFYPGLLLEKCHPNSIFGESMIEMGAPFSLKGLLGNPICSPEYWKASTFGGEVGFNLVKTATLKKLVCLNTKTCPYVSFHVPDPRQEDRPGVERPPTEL
Experimental: The effect of the compounds of the formula (I) on the biosynthesis of prostaglandins was determined by a known technique (J. Biol. Chem., 246, 6700; 1971). As an enzyme source a homogenizate of sheep spermatocele and as a substrate arachidonic acid were used. The transformation of the substrate, which involves oxygen consumption, was monitored on the basis of the change of the concentration of dissolved oxygen, which was measured by a Clark electrode. During the measurements the concentration of the active compounds, which involved a 50% and 100%, respectively, […] in the oxygen consumption were determined. The concentrations were expressed in μM/lit. The results obtained are contained in the Table below. |The effect of the compounds of the formula |(I) on the activity of cyclic oxygenase |Substrate: arachidonic acid

paw oedema = test: antiinflammatory activity, carrageenien-induced paw oedema on rats; format: in vivo
Experimental: The diuretic activity of the compounds of the formula (I) was tested on rats. The quantity of the urine passed in 4 hours and of the discharged Na^+ and K^+ ions were determined by known methods (Arzneimitt. Forsch. 27, 559; 1978). The antiinflammatory activity was tested in paw oedema on rats. The oedema was induced by […] inhibition was expressed in %.

[1] = acute toxicity (LD50) on mice; settings: mouse, in vivo, po
[2] = test system: isolated trachea of guinea pigs; test: relaxant activity on isolated trachea of guinea pigs; settings: for relaxant effect relative to theophylline: 1 μg/ml. dose; for relaxant activity relative to theophylline: related to a 95 to 100% relaxation
Experimental: According to a test carried out on isolated trachea of guinea pigs (J. Pharm. Pharmac. 31, 798; 1979) the compounds prepared according to the invention have a relaxant activity. […] The activity of the compounds obtained in Example 4 is significant also at a dose of 0.1 μg/ml.

acetylcholine = test: antagonistic activity against acetylcholine on ileum of guinea pigs
histamine = test: antagonistic activity against histamine on ileum of guinea pigs; settings: for effect against histamine relative to theophylline: 50 μg/ml. antagonistic dose
serotonine = serotonine antagonistic effect on gastric fundus strip of rats; settings: 10 μg/ml. antagonistic dose
[3] = diuretic activity on rats, quantity of urine passed in 4 hours; format: in vivo; settings: 2 mg/kg. dose, compared with 2 mg/kg. p.o. Hypothiazid
Experimental: The diuretic activity of the compounds of the formula (I) was tested on rats. The quantity of the urine passed in 4 hours and of the discharged Na^+ and K^+ ions were determined by known methods (Arzneimitt. Forsch. 27, 559; 1978). The antiinflammatory activity was tested in paw oedema on rats. The oedema was induced by carrageenien and the inhibition was expressed in %.

Row | AC50 (cyclic oxygenase) [µM] | EC (100% increase) (cyclic oxygenase) [µM] | SMILES | inhibition (serotonine antagonistic effect) (serotonine) [%] | further results
1 | 40 | 80 | N#CC(SCC(=O)O)C1=NCCc2ccccc21 (stereo not drawn) [Example 5, α-carboxy-methyl-mercapto-3,4-dihydro-isoquinolyl-acetonitrile] |  | 
2 |  |  | Cn1c(=O)c2[nH]cnc2n(C)c1=O [theophylline, reference compound] | 8 | inhibition against acetylcholine (acetylcholine; 50 μg/ml. antagonistic dose): 16%; maximum inhibition (acetylcholine) (acetylcholine; at a dose of 200 μg/ml.): 30%
3 | 62 | 124 | COc1cc2c(cc1OC)C(C(C#N)SCCN(C)C)=NCC2 (stereo not drawn) [Example 15, α-(2-dimethylaminoethyl)-mercapto-6,7-dimethoxy-3,4-dihydro-1-isoquinolyl-acetonitrile hydrochloride] |  | 
4 | 48 | 96 | N#CC(SCCC(=O)O)C1=NCCc2ccccc21 (stereo not drawn) [Example 8, α-(2-carboxyethyl)-mercapto-3,4-dihydro-1-isoquinolyl-acetonitrile] | 8 | 
5 | 69 | 138 | CCOC(=O)CSC(C#N)C1=NCCc2cc(OC)c(OC)cc21 (stereo not drawn) [Example 18, α(ethoxycarbonyl)-methyl-mercapto-6,7-dimethoxy-3,4dihydro-1-isoquinolyl-acetonitrile] |  | 
6 | 720 | 1800 | COc1cc2c(cc1OC)C(C(C#N)SCC(=O)NN)=NCC2 (stereo not drawn) [Example 22, α-(carbohydrazidomethyl)-mercapto-6,7-dimethoxy-3,4-dihydro-1-isoquinolyl-acetonitrile] |  | 
7 | 280 | 395 | CCN(CC)CCSC(C#N)C1=NCCc2cc(OC)c(OC)cc21 (stereo not drawn) [Example 14, α-(2-diethylaminoethyl)-mercapto-6,7-dimethoxy-3,4-dihydro-1-isoquinolyl-acetonitrile hydrochloride] |  | 
8 | 105 |  | COc1cc2c(cc1OC)C(C(C#N)SC(C)C(=O)O)=NCC2 (stereo not drawn) [Example 12, α-(1-carboxy-1-ethyl)-mercapto-6,7-dimethoxy-3,4-dihydro-1-isoquinolyl-acetonitrile] |  | 

Row | SMILES | AC50 (cyclic oxygenase) [µM] | EC (100% increase) (cyclic oxygenase) [µM] | inhibition (serotonine antagonistic effect) (serotonine) [%] | further results
9 | COc1cc2c(cc1OC)C(C(C#N)SCCO)=NCC2 (stereo not drawn) [Example 3, α-(2-hydroxy-ethylmercapto)-6,7-dimethoxy-3,4-dihydro-1-isoquinolyl-acetonitrile] | 100 | 200 |  | inhibition in paw oedema test (paw oedema; 100 mg/kg dose, rats (route not given)): 20%; LD50 ([1]; per os on mice, read-out: DL): > 500 mg/kg
10 | COc1cc2c(cc1OC)C(C(C#N)SCCCO)=NCC2 (stereo not drawn) [Example 4, α-(3-hydroxy-propylmercapto)-6,7-dimethoxy-3,4-dihydro-1-isoquinolyl-acetonitrile] | 70 | 140 | 80 | inhibition in paw oedema test (paw oedema; 100 mg/kg. p.o. dose, rats): 20%; relaxant effect relative to theophylline [2]: five-times more effective than theophylline; relaxant activity ([2]; dose of 0.1 μg/ml.): significant; relaxant activity relative to theophylline [2]: five-times higher activity than theophylline; activity against acetylcholine relative to theophylline (acetylcholine; 50 μg/ml. antagonistic dose): six-times more active; maximum inhibition (acetylcholine) (acetylcholine; in a dose of 50 μg/ml.): 100%; maximum inhibition (histamine) (histamine; 50 μg/ml.): 100%; effect against histamine relative to theophylline (histamine): six-times more potent; LD50 ([1]; p.o. on mice, read-out: LD50): > 500 mg/kg
11 | COc1cc2c(cc1OC)C(C(C#N)SCC(=O)O)=NCC2 (stereo not drawn) [Example 6, α-carboxymethylmercapto-6,7-dimethoxy-3,4-l-dihydro-1-isoquinolyl-acetonitrile] | 60 | 225 | 16 | increase of the quantity of the urine secreted [3]: to the same extent as a 2 mg/kg. p.o. dose of Hypothiazid; LD50 ([1]; p.o. on mice, read-out: LD50): > 500 mg/kg
12 | COc1cc2c(cc1OC)C(C(C#N)SCCC(=O)O)=NCC2 (centres unmarked) [Example 9] | 95 |  |  | increase of the quantity of the urine secreted [3]: to the same extent as a 2 mg/kg. p.o. dose of Hypothiazid; relaxant effect relative to theophylline [2]: only half of its effect; relaxant activity relative to theophylline [2]: the same activity as theophylline; activity against acetylcholine relative to theophylline (acetylcholine; 50 μg/ml. antagonistic dose): the same activity; maximum inhibition (acetylcholine) (acetylcholine; in a dose of 100 μg/ml.): 55%; effect against histamine relative to theophylline (histamine): the same effect as theophylline; maximum inhibition (histamine) (histamine; 100 μg/ml.): 26%; LD50 ([1]; p.o. on mice, read-out: LD50): > 500 mg/kg
